Results: US11931366B2, “Compositions and methods of use thereof for treatment of proteinopathies” (priority 2018, dated 2024)
Entries after “also recorded” stand apart in the source; their conditions may differ. Read-outs that look alike come from different tables or passages of the source.

Legend:
[1] = tested on: transgenic C. elegans expressing human mutant alpha-1-antitrypsin gene fused to GFP; assay: High-throughput phenotypic drug screen and dose response in the C. elegans model of ATD (mutant AT accumulation); assay type: in vivo; conditions: for reduction of mutant AT accumulation: 8-point dose response curves, FIG. 4B, 5, 11; for hit in high-throughput screening campaign: C. elegans model of ATD, FIG. 4A
[2] = tested on: mutant AT protein accumulation in liver; assay type: in vivo, mouse; conditions: vs control (CTR)
[3] = tested on: autophagy pathway (LC3, p62); assay: Autophagy markers (LC3-II/I, p62) following fluphenazine treatment; assay type: in vivo; conditions: for autophagic flux: liver
[4] = following fluphenazine treatment

| Compound | reduction of mutant AT accumulation [1] | hit in high-throughput screening campaign [1] | other results |
| --- | --- | --- | --- |
| OC(CNCc1ccc(Cl)cc1)CSc1ccccc1 (stereo not drawn) [RDR 03172] | reduce mutant AT protein accumulation; also recorded: reducing AT accumulations in a dose-dependent manner |  |  |
| FC(F)(F)c1ccc(SCCCN2CCN(c3cccc(Cl)c3)CC2)nc1 [AW00794, Piperazine, 1-(3-chlorophenyl)-4-[3-[[5-(trifluoromethyl)-2-pyridinyl]thio]propyl]-] | reduce mutant AT protein accumulation; also recorded: reduces AT accumulation |  |  |
| CN1CCN(CCCN2c3ccccc3Sc3ccc(Cl)cc32)CC1 [prochlorperazine] | reduce mutant AT accumulation in a dose-dependent manner | hit compounds |  |
| OCCN1CCN(CCCN2c3ccccc3Sc3ccc(Cl)cc32)CC1 [perphenazine] | reduce mutant AT accumulation in a dose-dependent manner | hit compounds |  |
| CCSc1ccc2c(c1)N(CCCN1CCN(C)CC1)c1ccccc1S2 [thiethylperazine] | reduce mutant AT accumulation in a dose-dependent manner |  |  |
| CSc1ccc2c(c1)N(CCC1CCCCN1C)c1ccccc1S2 (stereo not drawn) [thioridazine] | reduce mutant AT accumulation in a dose-dependent manner |  |  |
| CN1CCN(CCCN2c3ccccc3Sc3ccc(C(F)(F)F)cc32)CC1 [trifluoperazine] | reduce mutant AT accumulation in a dose-dependent manner | hit compounds |  |
| OCCN1CCN(CCCN2c3ccccc3Sc3ccc(C(F)(F)F)cc32)CC1 [fluphenazine] | dose-dependent reduction of mutant AT; also recorded: reduce mutant AT accumulation in a dose-dependent manner | hit compounds | Sirius red staining (collagen deposition, liver fibrosis) ([2]; mouse liver sections): significantly reduced; accumulation of mutant AT protein (purple dots) in liver sections ([2]; transgenic mouse model of ATD): significantly reduced accumulation of mutant AT protein; percent area of purple dots (quantification of AT accumulations) ([2]; transgenic mouse model of ATD): significantly reduced; accumulation of mutant AT protein (purple dots) in liver sections ([2]; transgenic mouse model of ATD, listed as Fluphenazine): reduces mutant AT accumulation; LC3-II/I ratio [3, 4]: increase; p62 [3, 4]: reduction; autophagic flux [3]: enhancing autophagic flux; autophagic flux ([3]; listed as Fluphenazine): enhances autophagic flux; reduction of mutant AT accumulation ([1]; listed as Fluphenazine): reduce misfolded AT protein accumulation in a dose and time-dependent manner |
